This is an account of results in patent US20230295200A1 (REGENTS OF THE UNIVERSITY OF MICHIGAN, priority 2022, published 2023).

One assay has as its target T1, STAT6 protein (Homo sapiens, UniProt P42226).
T1 sequence (P42226 1-847): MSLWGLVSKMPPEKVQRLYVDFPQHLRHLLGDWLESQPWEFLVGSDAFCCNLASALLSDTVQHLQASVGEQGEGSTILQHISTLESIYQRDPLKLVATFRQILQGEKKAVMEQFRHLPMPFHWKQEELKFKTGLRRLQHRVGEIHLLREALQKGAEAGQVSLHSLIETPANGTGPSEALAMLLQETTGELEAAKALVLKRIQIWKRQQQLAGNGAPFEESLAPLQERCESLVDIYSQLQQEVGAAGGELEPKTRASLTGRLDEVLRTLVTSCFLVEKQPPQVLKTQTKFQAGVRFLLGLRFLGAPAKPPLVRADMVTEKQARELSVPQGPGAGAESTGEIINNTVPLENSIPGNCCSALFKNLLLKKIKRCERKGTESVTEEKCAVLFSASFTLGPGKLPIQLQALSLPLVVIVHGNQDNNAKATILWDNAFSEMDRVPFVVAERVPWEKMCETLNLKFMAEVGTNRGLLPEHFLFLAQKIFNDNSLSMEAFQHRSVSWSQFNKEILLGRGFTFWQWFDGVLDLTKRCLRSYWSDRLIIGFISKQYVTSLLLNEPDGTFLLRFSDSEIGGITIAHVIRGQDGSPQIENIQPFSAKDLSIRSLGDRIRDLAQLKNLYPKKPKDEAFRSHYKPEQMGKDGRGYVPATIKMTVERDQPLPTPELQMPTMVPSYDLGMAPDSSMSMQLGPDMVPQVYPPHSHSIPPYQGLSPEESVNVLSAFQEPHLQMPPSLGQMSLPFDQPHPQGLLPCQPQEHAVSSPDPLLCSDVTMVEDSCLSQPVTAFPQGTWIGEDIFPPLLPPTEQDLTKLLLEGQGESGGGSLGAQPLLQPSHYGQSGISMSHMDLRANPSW
The assay is described as follows: Fluorescence polarization (FP) binding assay, STAT6. The conditions noted are these: FP competition, 5 nM fluorescein-labeled tracer, 200 nM protein, PBS pH7.4; read-out: Binding STAT6. An outline of the steps: (§1)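 5 nM fluorescein tracer + 200 nM STAT protein; PBS pH 7.4, 0.01% BGG, 0.01% Tween-20, 2 mM DTT; shake 15 min, 1 h RT equilibrium; FP read; nonlinear fit for inhibition constants.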
Background: Polarisation of emitted light reports the rotation of a fluorescent probe.

A further assay deals with T2, STAT5A (Homo sapiens, UniProt P42229).
T2 sequence (P42229 1-794): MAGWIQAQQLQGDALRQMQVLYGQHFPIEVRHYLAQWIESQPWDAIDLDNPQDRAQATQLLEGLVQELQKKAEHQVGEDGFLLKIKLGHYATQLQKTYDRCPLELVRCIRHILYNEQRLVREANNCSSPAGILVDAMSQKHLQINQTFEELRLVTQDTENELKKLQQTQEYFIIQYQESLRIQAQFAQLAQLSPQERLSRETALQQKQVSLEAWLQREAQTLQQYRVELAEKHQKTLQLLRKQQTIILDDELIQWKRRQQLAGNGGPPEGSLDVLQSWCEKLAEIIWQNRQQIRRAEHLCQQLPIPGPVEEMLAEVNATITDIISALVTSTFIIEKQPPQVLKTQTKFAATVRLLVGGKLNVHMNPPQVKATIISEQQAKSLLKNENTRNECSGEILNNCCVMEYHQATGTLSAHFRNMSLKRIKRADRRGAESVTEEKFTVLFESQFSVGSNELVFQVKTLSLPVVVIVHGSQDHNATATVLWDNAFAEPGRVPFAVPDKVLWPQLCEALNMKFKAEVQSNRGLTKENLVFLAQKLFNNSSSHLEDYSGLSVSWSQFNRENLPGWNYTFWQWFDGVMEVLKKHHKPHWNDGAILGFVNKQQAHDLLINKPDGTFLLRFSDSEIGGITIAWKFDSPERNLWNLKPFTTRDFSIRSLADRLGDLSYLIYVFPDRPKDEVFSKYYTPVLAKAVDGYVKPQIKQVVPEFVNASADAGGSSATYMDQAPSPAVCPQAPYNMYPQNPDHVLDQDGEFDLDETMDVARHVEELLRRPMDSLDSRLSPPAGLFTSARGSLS
The assay can be described thus: Fluorescence polarization (FP) binding assay, STAT5A. The following applies: FP competition, 5 nM fluorescein-labeled tracer, 200 nM protein, PBS pH7.4. An outline of the steps:
as §1

Turning to `CC(C)(C)[C@H](NC(=O)c1cc2cc(C(F)(F)P(=O)(O)O)ccc2s1)C(=O)N1Cc2ccccc2[C@H]1C(=O)Nc1ncc(-c2ccccc2)s1` [Compound 200, ((2-(((S)-3,3-dimethyl-1-oxo-1-((S)-1-((5-phenylthiazol-2-yl)carbamoyl)isoindolin-2-yl)butan-2-yl)carbamoyl)benzo[b]thiophen-5-yl)difluoromethyl)phosphonic acid], the Ki on STAT6 protein lay in the range of 1000 to 10000 nM; at STAT5A, 100 to 1000 nM.

As for `CC(C)(C)[C@H](NC(=O)c1cc2cc(C(F)(F)P(=O)(O)O)ccc2s1)C(=O)N1CCN(C(=O)OCc2ccccc2)C[C@H]1C(=O)Nc1ncc(-c2ccccc2)s1` [Compound 201, ((2-(((S)-1-((S)-4-((benzyloxy)carbonyl)-2-((5-phenylthiazol-2-yl)carbamoyl)piperazin-1-yl)-3,3-dimethyl-1-oxobutan-2-yl)carbamoyl)benzo[b]thiophen-5-yl)difluoromethyl)phosphonic acid], the Ki at STAT6 protein lay within 1000 to 10000 nM; on STAT5A it was 100 to 1000 nM.

In the case of `CC(C)(C)[C@H](NC(=O)c1cc2cc(C(F)(F)P(=O)(O)O)ccc2s1)C(=O)N1C[C@H](OCc2ccccc2)C[C@H]1C(=O)N1Cc2ccccc2C1` [Compound 202, ((2-(((S)-1-((2S,4R)-4-(benzyloxy)-2-(isoindoline-2-carbonyl)pyrrolidin-1-yl)-3,3-dimethyl-1-oxobutan-2-yl)carbamoyl)benzo[b]thiophen-5-yl)difluoromethyl)phosphonic acid], the Ki at STAT6 protein and on STAT5A was 1000 to 10000 nM throughout.

On to `CC(C)(C)[C@H](NC(=O)c1cc2cc(C(F)(F)P(=O)(O)O)ccc2s1)C(=O)N1C[C@H](OCc2ccccc2)C[C@H]1C(=O)Nc1ncc(-c2ccccc2)s1` [Compound 203, ((2-(((S)-1-((2S,4R)-4-(benzyloxy)-2-((5-phenylthiazol-2-yl)carbamoyl)pyrrolidin-1-yl)-3,3-dimethyl-1-oxobutan-2-yl)carbamoyl)benzo[b]thiophen-5-yl)difluoromethyl)phosphonic acid], for which the Ki on STAT6 protein lay within 1000 to 10000 nM; at STAT5A it was 100 to 1000 nM.

As for `CCOC(=O)CO[C@H]1C[C@@H](C(=O)Nc2ncc(-c3ccccc3)s2)N(C(=O)[C@@H](NC(=O)c2cc3cc(C(F)(F)P(=O)(O)O)ccc3s2)C(C)(C)C)C1` [Compound 205, ((2-(((S)-1-((2S,4S)-4-(2-ethoxy-2-oxoethoxy)-2-((5-phenylthiazol-2-yl)carbamoyl)pyrrolidin-1-yl)-3,3-dimethyl-1-oxobutan-2-yl)carbamoyl)benzo[b]thiophen-5-yl)difluoromethyl)phosphonic acid], the Ki on STAT6 protein and at STAT5A was 1000 to 10000 nM each time.

On to `CCOC(=O)CO[C@@H]1C[C@@H](C(=O)Nc2ncc(-c3ccccc3)s2)N(C(=O)[C@@H](NC(=O)c2cc3cc(C(F)(F)P(=O)(O)O)ccc3s2)C(C)(C)C)C1` [Compound 206, ((2-(((S)-1-((2S,4R)-4-(2-ethoxy-2-oxoethoxy)-2-((5-phenylthiazol-2-yl)carbamoyl)pyrrolidin-1-yl)-3,3-dimethyl-1-oxobutan-2-yl)carbamoyl)benzo[b]thiophen-5-yl)difluoromethyl)phosphonic acid], for which the Ki lay within 1000 to 10000 nM at STAT6 protein and 100 to 1000 nM at STAT5A.

In the case of `CC(C)(C)[C@H](NC(=O)c1cc2cc(C(F)(F)P(=O)(O)O)ccc2s1)C(=O)N1C[C@@H](Oc2ccccc2)C[C@H]1C(=O)Nc1ncc(-c2ccccc2)s1` [Compound 207, ((2-(((S)-3,3-dimethyl-1-oxo-1-((2S,4S)-4-phenoxy-2-((5-phenylthiazol-2-yl)carbamoyl)pyrrolidin-1-yl)butan-2-yl)carbamoyl)benzo[b]thiophen-5-yl)difluoromethyl)phosphonic acid], the Ki at STAT6 protein and on STAT5A was 1000 to 10000 nM in each case.

For the compound `CC(C)(C)[C@H](NC(=O)c1cc2cc(C(F)(F)P(=O)(O)O)ccc2s1)C(=O)N1C[C@H](Oc2ccccc2)C[C@H]1C(=O)Nc1ncc(-c2ccccc2)s1` [Compound 208, ((2-(((S)-3,3-dimethyl-1-oxo-1-((2S,4R)-4-phenoxy-2-((5-phenylthiazol-2-yl)carbamoyl)pyrrolidin-1-yl)butan-2-yl)carbamoyl)benzo[b]thiophen-5-yl)difluoromethyl)phosphonic acid], the Ki on STAT6 protein fell in the range of 1000 to 10000 nM; at STAT5A, 100 to 1000 nM.

For the compound `CC(C)(C)[C@H](NC(=O)c1cc2cc(C(F)(F)P(=O)(O)O)ccc2s1)C(=O)N1C[C@@H](Oc2ccc3ccccc3c2)C[C@H]1C(=O)Nc1ncc(-c2ccccc2)s1` [Compound 209, ((2-(((S)-3,3-dimethyl-1-((2S,4S)-4-(naphthalen-2-yloxy)-2-((5-phenylthiazol-2-yl)carbamoyl)pyrrolidin-1-yl)-1-oxobutan-2-yl)carbamoyl)benzo[b]thiophen-5-yl)difluoromethyl)phosphonic acid], the Ki is 1000 to 10000 nM at STAT6 protein and > 10000 nM at STAT5A.

Regarding `CC(C)(C)[C@H](NC(=O)c1cc2cc(C(F)(F)P(=O)(O)O)ccc2s1)C(=O)N1C[C@H](Oc2ccc3ccccc3c2)C[C@H]1C(=O)Nc1ncc(-c2ccccc2)s1` [Compound 210, ((2-(((S)-3,3-dimethyl-1-((2S,4R)-4-(naphthalen-2-yloxy)-2-((5-phenylthiazol-2-yl)carbamoyl)pyrrolidin-1-yl)-1-oxobutan-2-yl)carbamoyl)benzo[b]thiophen-5-yl)difluoromethyl)phosphonic acid], the Ki on STAT6 protein and at STAT5A was 1000 to 10000 nM throughout.

In the case of `CC(C)(C)[C@H](NC(=O)c1cc2cc(C(F)(F)P(=O)(O)O)ccc2s1)C(=O)N1CCC[C@H]1C(=O)Nc1ncc(Cc2ccccc2)s1` [Compound 211, ((2-(((S)-1-((S)-2-((5-benzylthiazol-2-yl)carbamoyl)pyrrolidin-1-yl)-3,3-dimethyl-1-oxobutan-2-yl)carbamoyl)benzo[b]thiophen-5-yl)difluoromethyl)phosphonic acid], the Ki was 100 to 1000 nM at STAT6 protein and 1000 to 10000 nM at STAT5A.

Consider `CC(C)(C)[C@H](NC(=O)c1cc2cc(C(F)(F)P(=O)(O)O)ccc2s1)C(=O)N1CCC[C@H]1C(=O)Nc1nc(Cc2ccccc2)cs1` [Compound 212, ((2-(((S)-1-((S)-2-((4-benzylthiazol-2-yl)carbamoyl)pyrrolidin-1-yl)-3,3-dimethyl-1-oxobutan-2-yl)carbamoyl)benzo[b]thiophen-5-yl)difluoromethyl)phosphonic acid], for which the Ki on STAT6 protein and on STAT5A was 1000 to 10000 nM in each case.

Regarding `CC(C)(C)[C@H](NC(=O)c1cc2cc(C(F)(F)P(=O)(O)O)ccc2s1)C(=O)N1CCC[C@H]1C(=O)Nc1nc2ccccc2s1` [Compound 213, ((2-(((S)-1-((S)-2-(benzo[d]thiazol-2-ylcarbamoyl)pyrrolidin-1-yl)-3,3-dimethyl-1-oxobutan-2-yl)carbamoyl)benzo[b]thiophen-5-yl)difluoromethyl)phosphonic acid], the figures for the Ki on STAT6 protein and on STAT5A were 1000 to 10000 nM and > 10000 nM, respectively.

Regarding `CC(C)(C)[C@H](NC(=O)c1cc2cc(C(F)(F)P(=O)(O)O)ccc2s1)C(=O)N1CCC[C@H]1C(=O)N[C@H]1CCc2ccccc2C1` [Compound 214, ((2-(((S)-3,3-dimethyl-1-oxo-1-((S)-2-(((S)-1,2,3,4-tetrahydronaphthalen-2-yl)carbamoyl)pyrrolidin-1-yl)butan-2-yl)carbamoyl)benzo[b]thiophen-5-yl)difluoromethyl)phosphonic acid], the Ki on STAT6 protein was 1000 to 10000 nM; on STAT5A, > 10000 nM.
